Key:
Format in all cases: biochemical, bovine
[1] = target: T1, PI3-kinase p85α/p110 complex (wild type p110, recombinant, expressed in Sf9 cells), protein-serine kinase activity (Bos taurus, UniProt P32871); experiment: in vitro protein-serine kinase assay (phosphorylation of p85α) on anti-p110 immunoprecipitates of p85α/p110; details: DTT alone, final concentration 300 mM; FIG. 17 B lane 2
T1 construct: made in house; host or cells: Sf9 insect cells (baculovirus co-infection)
Method: Anti-p110 immunoprecipitates of p85α/p110 were used to study the kinetics of phosphorylation. The Km (ATP) for the phosphorylation of p85α was measured as approximately 4 μM. The stoichiometry of phosphorylation of p85α was then measured in the presence of excess ATP (50 μM). Approximately 0.9 mol of phosphate was incorporated into one mol of p85α protein.
A further experiment to determine in vitro kinase activity with treatment of Nbs2 and DTT was also conducted. Lysates of Sf9 cells that had been coinfected with p85α/p110 baculoviruses were also treated as follows: the lysates were immunoprecipitated with anti-p110 antibodies and treated as follows: untreated (see FIG. 17, B, lane 1); 300 mM DTT (lane 2); 0.3 mM Nbs2 (lane 3); pretreated with 0.3 mM Nbs2 and then incubated with 3 mM DTT, 30 mM DTT, 300 mM DTT (lanes 4, 5, 6 respectively). Samples were then subjected to in vitro kinase assays and analysis by SDS-PAGE was conducted. Phosphorylated proteins were visualized by autoradiography.
The p110 protein was immunoprecipitated from insect cells, and equal amounts of each GST fusion protein or the GST protein alone, were mixed with p110 and the proteins were allowed to phosphorylate in vitro. […] Phosphorylated proteins were analyzed by SDS-PAGE and autoradiography.

[2] = target: T2, PI3-kinase p85α/p110 complex (wild type, recombinant, expressed in Sf9 cells) (Bos taurus, UniProt P32871); experiment: in vitro PI3-kinase assay on anti-p110 immunoprecipitates, p85α/p110 complex; details: DTT alone, final concentration 300 mM; FIG. 17 A lane 2
T2 construct: made in house; host or cells: Sf9 insect cells (baculovirus co-infection)
T2 sequence (P32871 whole entry): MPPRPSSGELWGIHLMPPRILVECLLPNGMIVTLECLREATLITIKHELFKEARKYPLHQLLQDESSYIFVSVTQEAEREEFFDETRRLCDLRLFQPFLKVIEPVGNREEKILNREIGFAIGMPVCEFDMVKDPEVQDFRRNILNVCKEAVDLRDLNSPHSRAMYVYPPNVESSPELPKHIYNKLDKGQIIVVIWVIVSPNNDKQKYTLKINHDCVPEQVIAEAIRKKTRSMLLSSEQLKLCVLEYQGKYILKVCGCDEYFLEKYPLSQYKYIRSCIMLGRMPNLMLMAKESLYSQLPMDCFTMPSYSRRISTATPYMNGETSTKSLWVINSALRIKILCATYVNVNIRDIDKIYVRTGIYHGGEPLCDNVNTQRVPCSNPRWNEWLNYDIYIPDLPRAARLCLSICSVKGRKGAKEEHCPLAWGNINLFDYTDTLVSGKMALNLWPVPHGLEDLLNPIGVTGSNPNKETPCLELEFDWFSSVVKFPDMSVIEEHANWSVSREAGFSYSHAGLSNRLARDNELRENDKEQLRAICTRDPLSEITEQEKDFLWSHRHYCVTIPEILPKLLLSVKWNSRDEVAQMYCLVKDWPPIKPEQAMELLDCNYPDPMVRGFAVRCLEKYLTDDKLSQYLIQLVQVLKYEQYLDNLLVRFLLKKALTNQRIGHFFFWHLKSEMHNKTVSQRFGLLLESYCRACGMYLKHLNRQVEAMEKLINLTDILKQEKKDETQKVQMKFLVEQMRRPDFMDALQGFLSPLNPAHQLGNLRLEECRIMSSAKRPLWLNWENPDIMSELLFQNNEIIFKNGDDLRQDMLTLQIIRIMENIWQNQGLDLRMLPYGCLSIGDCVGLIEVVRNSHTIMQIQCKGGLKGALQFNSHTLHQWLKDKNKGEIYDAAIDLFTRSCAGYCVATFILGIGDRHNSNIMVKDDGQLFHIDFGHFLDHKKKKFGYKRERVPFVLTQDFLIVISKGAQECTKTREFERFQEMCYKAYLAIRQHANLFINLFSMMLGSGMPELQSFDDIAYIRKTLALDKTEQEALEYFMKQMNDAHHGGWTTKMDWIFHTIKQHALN
T2 sequence (P23727 whole entry partner): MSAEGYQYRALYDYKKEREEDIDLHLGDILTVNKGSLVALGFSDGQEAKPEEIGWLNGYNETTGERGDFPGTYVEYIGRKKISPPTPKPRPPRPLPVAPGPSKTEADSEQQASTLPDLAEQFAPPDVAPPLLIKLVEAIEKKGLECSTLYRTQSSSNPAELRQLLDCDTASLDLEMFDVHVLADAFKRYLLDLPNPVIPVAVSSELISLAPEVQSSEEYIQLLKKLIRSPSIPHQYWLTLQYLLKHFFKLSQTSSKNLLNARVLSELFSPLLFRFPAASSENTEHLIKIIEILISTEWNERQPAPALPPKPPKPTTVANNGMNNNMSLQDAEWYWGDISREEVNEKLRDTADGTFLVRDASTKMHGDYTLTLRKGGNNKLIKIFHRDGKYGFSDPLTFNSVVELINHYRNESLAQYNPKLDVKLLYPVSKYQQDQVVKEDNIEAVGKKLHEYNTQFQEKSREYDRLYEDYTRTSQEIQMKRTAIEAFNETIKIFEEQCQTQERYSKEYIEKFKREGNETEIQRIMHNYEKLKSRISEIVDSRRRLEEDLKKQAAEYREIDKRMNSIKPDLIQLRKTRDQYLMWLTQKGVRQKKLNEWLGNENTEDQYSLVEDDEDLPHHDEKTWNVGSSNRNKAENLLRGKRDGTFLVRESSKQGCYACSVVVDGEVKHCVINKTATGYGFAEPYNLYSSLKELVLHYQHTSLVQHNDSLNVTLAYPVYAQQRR
Method: (§1) Insect cells were infected with p85α/p110 complex, (see FIG. 17, A, lanes 1-6) or p110 alone, (see FIG. 17, B, lanes 7-12). The immunoprecipitates were washed twice with PI3-kinase buffer (20 mM Tris-HCl, pH 7.5, 100 mM NaCl, 0.5 mM EDTA). The samples were untreated or treated with 0.3 mM 5,5'-Dithio-bis [2-nitrobenzoic acid] (Nbs2) for 15 minutes at 22° C. Excess reagent was removed by washing the complexes three times with PI3-kinase buffer and the immunoprecipitate was then incubated for 15 minutes at 22° C. with increasing concentrations of dithiothreitol (DTT). A control sample was incubated with DTT alone at a final concentration of 300 mM. The remaining DTT was removed by washing with lysis buffer and the immunoprecipitates were subjected to PI3-kinase assays or to in vitro protein kinase assays described below.
(§2) The experiment was carried out and the experimental results set forth in FIG. 17, A. In vitro PI3-kinase assays were performed on anti-p110 immunoprecipitates of these cells that had been treated as follows: untreated (see FIG. 17, A, lane 1 and 7); 300 mM DTT (lanes 2 and 8); treated with 0.3 mM Nbs2 (lanes 3 and 9); immunoprecipitates pretreated with 0.3 mM Nbs2 incubated with 3 mM DTT (lanes 4 and 10), 30 mM DTT (lanes 5 and 11); 300 mM DTT (lanes 6 and 12).

[3] = target: T3, PI3-kinase p110 subunit alone (wild type, recombinant, expressed in Sf9 cells) (Bos taurus, UniProt P32871); experiment: in vitro PI3-kinase assay on anti-p110 immunoprecipitates, p110 alone; details: DTT alone, final concentration 300 mM; FIG. 17 A lane 8
T3 construct: made in house; host or cells: Sf9 insect cells (baculovirus)
T3 sequence (P32871 whole entry): as the sequence (P32871 whole entry) above
Method: as §1, §2

T1 sequence (P32871 whole entry): as above
T1 sequence (P23727 whole entry partner): as the sequence (P23727 whole entry partner) above

O[C@H](CS)[C@H](O)CS (racemic) [DTT, dithiothreitol]
slight activation: activation of protein serine kinase activity [1] | activation of PI3-kinase activity [2] | activation of PI3-kinase activity [3]
